Reference: BigSolDB 2.1

c1ccc2c(c1)Nc1ccccc1S2
solubility (mole fraction)
Details	298.2 K	308.2 K	318.2 K	328.2 K	338.2 K
in ethanol	0.00876	0.01	0.0122	0.0145	–
in propylene glycol	0.00416	0.0054	0.00656	0.00763	0.00852
in water	1.56e-07	1.98e-07	2.52e-07	3.58e-07	4.91e-07
